Measured values published in patent US6737085B2, “Apocynum venetum extract for use as antidepressant” (Tokiwa Phytochemical Co., Ltd., priority 2000, dated 2004).
Structures can show the parent of a compound that is named as a salt.

Tests used:
[1] = test system: Male CD rats; experiment: forced swimming test, acute administration; format: in vivo
Procedure: A common method for evaluating antidepressant effect called as the forced swimming test (Porsolt et al., Nature. 266, 730-732, (1977)) was used as follows. Male CD rats (230-250 g) were used in the tests. Forty animals were divided into groups of 8 animals treated with 30 mg/kg imipramine, 125 mg/kg, 250 mg/kg and 500 mg/kg Apocynum extract and purified water. Test solutions were orally administered 24 h, 5 h and 1 h before testing. Rats were forced to swim for 15 min in a Plexiglas cylinder (40×18 cm i.d.) containing water at 25° C. at a level of 17 cm so that they preliminarily learned that they could not escape from the cylinder. […] All the tests were performed between 1-3 p.m. The images in the tapes were evaluated by a person who was not aware of the treatment of each group.
(§1) Test solutions were prepared by dissolving or suspending Apocynum extract prepared in Example 2 in purified water or dissolving imipramine-HCl (imipramine is a known tricyclic antidepressant) in purified water, and administered at a dose of 10 ml/kg body weight. The results from 8 experimental animals in each group were expressed in mean ”SEM. Statistic significance as compared with control group was determined by ANOVA and multiple comparison tests were made by Fisher-PLSD (p<0.05:*).

[2] = test system: Male CD rats; experiment: forced swimming test, repeated administration; format: in vivo
Procedure: A common method for evaluating antidepressant effect called as the forced swimming test (Porsolt et al., Nature. 266, 730-732, (1977)) was used in the same manner as in Example 3. Male CD rats (230-250 g) were used in the tests. Forty animals were divided into groups of 8 animals treated with 20 mg/kg imipramine, 30 mg/kg, 60 mg/kg and 125 mg/kg Apocynum extract and purified water. Test solutions were orally administered between 3-4 p.m. daily. Rats were forced to swim for 15 min in a Plexiglas cylinder (40×18 cm i.d.) containing water at 25° C. at a level of 17 cm so that they preliminarily learned that they could not escape from the cylinder. […] All the tests were performed between 1-3 p.m. The images in the tapes were evaluated by a person who was not aware of the treatment of each group.
as §1, with “mean±SEM.” for “mean ”SEM.”

CN(C)CCCN1c2ccccc2CCc2ccccc21 [Imipramine, imipramine-HCl]
Inactive period (seconds) ([1]; 30 mg/kg orally 24 h, 5 h and 1 h before testing, 5 min swim, mean±SEM, n=8, control 209 ± 20, * p<0.05): 137 ± 18* seconds | inactive period as compared with control group ([1]; 30 mg/kg, acute oral administration, ANOVA, Fisher-PLSD p<0.05): significantly shortened | Inactive period (seconds) ([2]; 20 mg/kg orally daily, repeated, 5 min swim 1 h after final administration, mean±SEM, n=8, control 161.54 ± 16.5, * p<0.05): 97.91 ± 9.6* seconds | inactive period as compared with control group ([2]; 20 mg/kg, repeated oral administration, ANOVA, Fisher-PLSD p<0.05): significantly shortened
